Here are results for one compound from patent US12653192B2, “Pesticidal compositions” (SYNGENTA CROP PROTECTION AG, priority 2021, dated 2026).

The format of the data set is physicochemical. As for the experimental part: The percentage amount of spiropidion remaining at each time interval during the high temperature storage testing was compared to an identical sample stored at −18° C. (100%=amount of spiropidion in the −18° C. sample at respective time interval).

Read-outs that look alike come from different tables or passages of the source.

With `CCOC(=O)OC1=C(c2c(C)cc(Cl)cc2C)C(=O)N(C)C12CCN(OC)CC2` [Spiropidion, [3-(4-chloro-2,6-dimethyl-phenyl)-8-methoxy-1-methyl-2-oxo-1,8-diazaspiro[4.5]dec-3-en-4-yl]ethyl carbonate], the “chemical degradation of the active ingredient spiropidion” value is recorded as “only minimal chemical degradation”. For the same compound, under “1 month”, the “% Spiropidion remaining” value was 99%. Also, the “% Spiropidion remaining” value (12 months) amounted to 98%.
